# Source: PMC8233208 (The Journal of Biological Chemistry, 2021)
# Tested on: ZIKV (MR766)
# Assay: ZIKV total RNA replication by qRT-PCR in infected A549 cells
# Assay type: cell-based, ZIKV African-lineage MR766 strain
# Conditions: 10 μM, RNA replication and NS5 assays
substance,measurement,value
destruxin A [Compound 12],"antiviral (anti-ZIKV) activity, comparison among tested compounds",more potent activities
